As a reminder, the Ki is a measure of affinity in units of concentration, obtained from inhibition or displacement. The low end stands for higher affinity, the high end for lower affinity.

The target in this test is T1, human CGRP receptor (Homo sapiens, UniProt O60894+Q16602).
T1 construct: SK-N-MC membranes (˜20 μg protein) are incubated for 180 minutes at ambient temperature; endogenous in cells; host or cells: SK-N-MC cells (membranes)
T1 sequence (Q16602 23-461): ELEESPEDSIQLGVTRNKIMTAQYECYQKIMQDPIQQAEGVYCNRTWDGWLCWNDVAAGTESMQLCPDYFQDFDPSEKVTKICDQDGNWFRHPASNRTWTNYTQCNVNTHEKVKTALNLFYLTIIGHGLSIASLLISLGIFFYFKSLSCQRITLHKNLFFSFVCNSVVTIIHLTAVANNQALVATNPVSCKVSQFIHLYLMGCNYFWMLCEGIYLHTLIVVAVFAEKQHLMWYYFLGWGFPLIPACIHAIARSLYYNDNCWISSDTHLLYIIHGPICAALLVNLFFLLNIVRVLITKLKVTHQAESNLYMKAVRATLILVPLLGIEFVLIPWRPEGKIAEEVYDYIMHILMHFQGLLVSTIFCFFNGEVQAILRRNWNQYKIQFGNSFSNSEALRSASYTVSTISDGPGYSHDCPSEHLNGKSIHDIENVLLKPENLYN
T1 sequence (O60894 27-148): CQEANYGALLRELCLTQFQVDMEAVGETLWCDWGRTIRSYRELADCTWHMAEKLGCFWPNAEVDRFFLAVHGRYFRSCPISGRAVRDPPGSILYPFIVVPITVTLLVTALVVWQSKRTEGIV
In words: Binding studies with SK-N-MC cells (125I-CGRP displacement from membranes). Particulars: 50 pM 125I-iodotyrosyl-CGRP, 180 min, ambient temperature. How it is done:
A. Binding Studies with SK-N-MC Cells (Expressing the Human CGRP Receptor)
SK-N-MC membranes (˜20 μg protein) are incubated for 180 minutes at ambient temperature with 50 pM ^125I-iodotyrosyl-Calcitonin-Gene-Related Peptide and increasing concentrations of the test substances in a total volume of 250 μl (assay buffer: 10 mM tris, 50 mM NaCl, 5 mM MgCl2, 1 mM EDTA, pH=7.4). The incubation is ended by rapid filtration through GF/B-glass fibre filters treated with polyethyleneimine (0.1%) using a cell harvester. The protein-bound radioactivity is measured using a gamma counter. Non-specific binding is defined as the bound radioactivity after the presence of 1 μM BIBN4096BS during incubation.
The concentration binding curves are analysed using computer-aided non-linear curve fitting.
The compound `COc1ccc2c(c1)CCN(C1CCN(c3cc(Oc4cc(C)c5[nH]c(=O)oc5c4)ncn3)CC1)C(=O)N2` [(1)] displayed a Ki of 2 nM.

As to `Cc1cc(Oc2cc(N3CCC(n4c(=O)[nH]c5ncccc54)CC3)ncn2)cc2oc(=O)n(C)c12` [(2)], the Ki is 20 nM. This Ki is about 10-fold higher than that of the compound before. As for `COc1ccc2c(c1)CCN(C1CCN(c3cc(Oc4cc(C)c5c(c4)oc(=O)n5C)ncn3)CC1)C(=O)N2` [(3)], the affinity, expressed as Ki, was 23 nM. The compound `Cc1ccc(Oc2cc(N3CCC(n4c(=O)[nH]c5ncccc54)CC3)ncn2)cc1C` [(4)] showed a Ki of 175 nM. Compound `Cc1cc(Oc2cc(N3CCC(n4c(=O)[nH]c5ncccc54)CC3)ncn2)cc2oc(=O)[nH]c12` [(5)] gave a Ki of 3 nM. For `Cc1cc(Nc2cc(N3CCC(n4c(=O)[nH]c5ncccc54)CC3)ncn2)cc2oc(=O)[nH]c12` [(6)], the inhibition constant Ki came out at 4 nM. `COc1ccc2c(c1)CCN(C1CCN(c3cc(Nc4cc(C)c5[nH]c(=O)oc5c4)ncn3)CC1)C(=O)N2` [(7)] displayed a Ki of 5 nM. For the compound `COc1ccc2c(c1)CCN(C1CCN(c3cc(Nc4cc(C)c5[nH]c(C)nc5c4)ncn3)CC1)C(=O)N2` [(8)], the Ki stood at 12 nM. Then `Cc1nc2cc(Nc3cc(N4CCC(n5c(=O)[nH]c6c7ccccc7ncc65)CC4)ncn3)cc(C)c2[nH]1` [(9)], with 37 nM. `COc1ccc2c(c1)CCN(C1CCN(c3cc(Nc4cc(C)c5c(c4)oc(=O)n5C)ncn3)CC1)C(=O)N2` [(10)] showed a Ki of 49 nM. Then `COc1ccc2c(c1)CCN(C1CCN(c3cc(Nc4cc(C)c5[nH]ncc5c4)ncn3)CC1)C(=O)N2` [(11)], with 54 nM; and `COc1ccc2c(c1)CCN(C1CCN(c3cc(Nc4cc(C)c5c(c4)nc(C)n5C)ncn3)CC1)C(=O)N2` [(12)], with 61 nM; and `Cc1nc2cc(Nc3cc(N4CCC(n5c(=O)[nH]c6ncccc65)CC4)ncn3)cc(C)c2[nH]1` [(13)], with 68 nM.

The compound `Cc1cc(Nc2cc(N3CCC(n4c(=O)[nH]c5ncccc54)CC3)ncn2)cc2oc(=O)n(C)c12` [(14)] came in with an inhibition constant (Ki) of 81 nM. The Ki values of the last two compounds are within 1.5-fold of each other. Then `COc1ccc2c(c1)CCN(C1CCN(c3cc(N(C(C)=O)c4cc(C)c5c(c4)oc(=O)n5C)ncn3)CC1)C(=O)N2` [(15)], with 102 nM. The compound `COc1ccc2c(c1)CCN(C1CCN(c3cc(Nc4cc(C)c5oc(C)nc5c4)ncn3)CC1)C(=O)N2` [(16)] gave a Ki of 187 nM. `COc1ccc2c(c1)CCN(C1CCN(c3cc(Nc4cc(C)c(O)c(C)c4)ncn3)CC1)C(=O)N2` [(17)] had a Ki of 198 nM. With `Cc1cc(Nc2cc(Nc3ccc4c(c3)CC3(C4)C(=O)Nc4ncccc43)ncn2)cc2oc(=O)[nH]c12` (stereo not shown) [(18)], the Ki stood at 227 nM.

Consider `Cc1nc2cc(Nc3cc(Nc4ccc5c(c4)CC4(C5)C(=O)Nc5ncccc54)ncn3)cc(C)c2[nH]1` (stereo not shown) [(19)], for which the affinity corresponds to a Ki of 241 nM. With `Cc1nc2cc(Nc3cc(N4CCC(n5c(=O)[nH]c6ncccc65)CC4)ncn3)cc(C)c2o1` [(20)], affinity was put at a Ki of 481 nM. Compared with the last compound, the Ki is about 2-fold higher. Then `COc1ccc2c(c1)CCN(C1CCN(c3cc(Sc4cc(C)c5[nH]c(=O)oc5c4)ncn3)CC1)C(=O)N2` [(21)], with 2 nM; and `COc1ccc2c(c1)CCN(C1CCN(c3cc(Oc4cc(C)c5[nH]c(=O)oc5c4)nc(C)n3)CC1)C(=O)N2` [(22)], with 5 nM. Then `Cc1cc(Oc2cc(N3CCC4(CC3)OC(=O)Nc3ncccc34)ncn2)cc2oc(=O)[nH]c12` [(23)], with 1 nM.

In turn, `Cc1nc(Nc2cc(C)c3[nH]c(=O)oc3c2)cc(N2CCC(n3c(=O)[nH]c4ncccc43)CC2)n1` [(24)] had a Ki of 3 nM. Compared with the last compound, the Ki is about 3-fold higher. Then `COc1ccc2c(c1)CCN(C1CCN(c3cc([S+]([O-])c4cc(C)c5[nH]c(=O)oc5c4)ncn3)CC1)C(=O)N2` (stereo not shown) [(25)], with 18 nM; and `COc1ccc2c(c1)CCN(C1CCN(c3cc(S(=O)(=O)c4cc(C)c5[nH]c(=O)oc5c4)ncn3)CC1)C(=O)N2` [(26)], with 45 nM.

Consider `COc1ccc2c(c1)CCN(C1CCN(c3cc(Oc4cnc5ccccc5n4)ncn3)CC1)C(=O)N2` [(27)], for which the affinity corresponds to a Ki of 207 nM. This Ki lies about 4.6-fold higher than the previous one.

Compound `COc1ccc2c(c1)CCN(C1CCN(c3cc(Oc4cc(C)c5nc(CC#N)[nH]c5c4)ncn3)CC1)C(=O)N2` [(28)] showed a Ki of 4 nM. For `COc1ccc2c(c1)CCN(C1CCN(c3cc(Oc4cc(C)c5nc(C)[nH]c5c4)ncn3)CC1)C(=O)N2` [(29)] the value was 3 nM; for `COc1ccc2c(c1)CCN(C1CCN(c3cc(Oc4cc(C)nc5ccccc45)ncn3)CC1)C(=O)N2` [(31)], 129 nM; for `COc1ccc2c(c1)CCN(C1CCN(c3cc(Oc4cc(C)c5nc[nH]c5c4)ncn3)CC1)C(=O)N2` [(32)], 15 nM. Regarding `COc1ccc2c(c1)CCN(C1CCN(c3cc(Oc4cc(C)c5nc(CC6CC6)[nH]c5c4)ncn3)CC1)C(=O)N2` [(33)], affinity was put at a Ki of 8 nM. This Ki is about 1.9-fold lower than that of the compound before. For `Cc1nc2c(C)cc(Oc3cc(N4CCC(n5c(=O)[nH]c6ncccc65)CC4)ncn3)cc2[nH]1` [(34)] the value was 18 nM; for `COc1ccc2c(c1)CCN(C1CCN(c3cc(Oc4cc(C)c5nc(CC(F)(F)F)[nH]c5c4)ncn3)CC1)C(=O)N2` [(35)], 16 nM; for `COc1ccc2c(c1)CCN(C1CCN(c3cc(Oc4cc(C)nc(C)c4)ncn3)CC1)C(=O)N2` [(36)], 61 nM. For `COc1ccc2c(c1)CCN(C1CCN(c3cc(Oc4cc(C)c5[nH]c(=O)oc5c4)nc(N)n3)CC1)C(=O)N2` [(37)] the value was 65 nM; for `COCc1nc2c(C)cc(Oc3cc(N4CCC(N5CCc6cc(OC)ccc6NC5=O)CC4)ncn3)cc2[nH]1` [(38)], 10 nM. For the compound `COCc1nc2cc(Oc3cc(N4CCC5(CC4)OC(=O)Nc4ncccc45)ncn3)cc(C)c2[nH]1` [(39)], the Ki was 7 nM. This Ki and that of the compound before are within 1.5-fold of each other. For the compound `COc1ccc2c(c1)CCN(C1CCN(c3cc(Oc4cc(C)c5[nH]c(=O)oc5c4)nc(OC)n3)CC1)C(=O)N2` [(40)], the affinity, expressed as Ki, was 8 nM. As for `COc1nc(Oc2cc(C)c3[nH]c(=O)oc3c2)cc(N2CCC3(CC2)OC(=O)Nc2ncccc23)n1` [(41)], the inhibition constant (Ki) is 3 nM. In turn, `COc1ccc2c(c1)CCN(C1CCN(c3cc(Oc4cc(C)c5nc(C6CC6)[nH]c5c4)ncn3)CC1)C(=O)N2` [(42)] came in with a Ki of 2 nM.

`Cc1cc(Oc2cc(N3CCC(n4c(=O)[nH]c5ncccc54)CC3)ncn2)cc2[nH]c(C3CC3)nc12` [(43)] returned a Ki of 6 nM. For `Cc1cc(Oc2cc(N3CCC4(CC3)OC(=O)Nc3ncccc34)ncn2)cc2[nH]c(C3CC3)nc12` [(44)] the value was 1 nM; for `COc1ccc2c(c1)CCN(C1CCN(c3cc(Oc4cc(C)c5[nH]c(=O)oc5c4)nc(C4CC4)n3)CC1)C(=O)N2` [(45)], 81 nM; for `COc1ccc2c(c1)CCN(C1CCN(c3nc(Cl)cc(Oc4cc(C)c5[nH]c(=O)oc5c4)n3)CC1)C(=O)N2` [(46)], 194 nM.

For `COc1ccc2c(c1)CCN(C1CCN(c3cc(Oc4ccc5[nH]c(=O)oc5c4)ncn3)CC1)C(=O)N2` [(47)], the affinity corresponds to a Ki of 47 nM. Then `COc1ccc2c(c1)CCN(C1CCN(c3cc(Oc4ccc(NC(C)=O)c(C)c4)ncn3)CC1)C(=O)N2` [(48)], with 96 nM; and `COc1ccc2c(c1)CCN(C1CCN(c3cc(Oc4ccc(N)c(C)c4)ncn3)CC1)C(=O)N2` [(49)], with 154 nM. For `Cc1nc2cc(Oc3cc(N4CCC5(CC4)OC(=O)Nc4ncccc45)ncn3)cc(Cl)c2[nH]1` [(51)] the value was 3 nM; for `Cc1cc(Oc2cc(N3CCC(n4c(=O)[nH]c5ncccc54)CC3)ncn2)cc2[nH]c([C@@H]3CCCO3)nc12` [(52)], 27 nM.

Consider `COc1ccc2c(c1)CCN(C1CCN(c3cc(Oc4cc(C)c5nc([C@@H]6CCCO6)[nH]c5c4)ncn3)CC1)C(=O)N2` [(53)], for which the Ki came to 5 nM. `Cc1cc(Oc2cc(N3CCC4(CC3)OC(=O)Nc3ncccc34)ncn2)cc2[nH]c([C@@H]3CCCO3)nc12` [(54)]: the Ki came out at 2 nM.

Take `COc1ccc2c(c1)CCN(C1CCN(c3cc(Oc4ccc5[nH]c(C)nc5c4)ncn3)CC1)C(=O)N2` [(55)]: affinity was put at a Ki of 89 nM. As for `COc1ccc2c(c1)CCN(C1CCN(c3cc(Oc4ccc5[nH]c(C)nc5c4Cl)ncn3)CC1)C(=O)N2` [(56)], the Ki was 29 nM. `COc1ccc2c(c1)CCN(C1CCN(c3cc(Oc4cc(C)c5c(c4)OCC(=O)N5)ncn3)CC1)C(=O)N2` [(57)]: the Ki stood at 35 nM.

Compound `Cc1cc(Oc2cc(N3CCC4(CC3)OC(=O)Nc3ncccc34)ncn2)cc2nc(C3CCOC3)[nH]c12` (stereo not shown) [(58)] displayed a Ki of 2 nM. With `Cc1cc(Oc2cc(N3CCC4(CC3)OC(=O)Nc3ncccc34)ncn2)cc2nc([C@@H]3CCOC3)[nH]c12` [(59)], the affinity corresponds to a Ki of 2 nM. `Cc1cc(Oc2cc(N3CCC4(CC3)OC(=O)Nc3ncccc34)ncn2)cc2nc([C@H]3CCOC3)[nH]c12` [(60)] had a Ki of 2 nM.

`O=C1Nc2ncccc2C2(CCN(c3cc(Oc4cc(Cl)c5[nH]c(C6CCOC6)nc5c4)ncn3)CC2)O1` (stereo not shown) [(61)] returned a Ki of 2 nM. `O=C1Nc2ncccc2C2(CCN(c3cc(Oc4cc(Cl)c5[nH]c(C6CCOCC6)nc5c4)ncn3)CC2)O1` [(62)] had a Ki of 2 nM. Then `Cc1cc(Oc2cc(N3CCC4(CC3)OC(=O)Nc3ncccc34)ncn2)cc2nc(C(F)(F)F)[nH]c12` [(63)], with 2 nM; and `Cc1cc(Oc2cc(N3CCC4(CC3)OC(=O)Nc3ncccc34)ncn2)cc2sc(=O)[nH]c12` [(64)], with 2 nM. The compound `Cc1cc(Oc2cc(N3CCC4(CC3)OC(=O)Nc3ncccc34)ncn2)cc2nc(C3CCOCC3)[nH]c12` [(65)] showed a Ki of 3 nM.

Compound `COCCc1nc2c(C)cc(Oc3cc(N4CCC5(CC4)OC(=O)Nc4ncccc45)ncn3)cc2[nH]1` [(66)] had a Ki of 6 nM.

The record behind these values is patent US8952014B2, “Pyrimidine derivatives which are CGRP—antagonists” (Boehringer Ingelheim International GmbH, priority 2008, dated 2015).
